Test results as given in patent US10550116B2, “Fused bicyclic heterocycle derivatives as pesticides” (BAYER CROPSCIENCE AKTIENGESELLSCHAFT, priority 2015, dated 2020).
One block for each compound: values may come before it.

Key:
[1] = test system: Tetranychus urticae; test: Tetranychus urticae spray test, OP-resistant; type: in vivo; details: foliar, 144 h, bean leaf discs, after 6 days, read-out: efficacy
Description: To produce a suitable active ingredient preparation, 1 part by weight of active ingredient is dissolved with the stated parts by weight of solvent and made up with water containing an emulsifier concentration of 1000 ppm until the desired concentration is attained. To produce further test concentrations, the preparation is diluted with emulsifier-containing water. Discs of bean leaves (Phaseolus vulgaris) infested with all stages of the greenhouse red spider mite (Tetranychus urticae) are sprayed with an active ingredient preparation of the desired concentration. After 6 days, the efficacy in % is determined. 100% means that all the spider mites have been killed; 0% means that no spider mites have been killed.

[2] = log P by HPLC on reversed-phase column (EEC Directive 79/831 Annex V.A8); type: physicochemical; details: reversed-phase C18 HPLC column; pH 7.8, aqueous ammonium hydrogencarbonate/acetonitrile; 55° C.; read-out: log P (neutral)
Description: The log P values are measured according to EEC Directive 79/831 Annex V.A8 by HPLC (high-performance liquid chromatography) on a reversed-phase column (C 18). Temperature: 55° C. The LC-MS determination in the acidic range is effected at pH 2.7 using 0.1% aqueous formic acid and acetonitrile (contains 0.1% formic acid) as eluents; linear gradient from 10% acetonitrile to 95% acetonitrile. Called log P (HCOOH) in the table. LC-MS determination in the neutral range is effected at pH 7.8 with 0.001 molar aqueous ammonium hydrogencarbonate solution and acetonitrile as eluents; linear gradient from 10% acetonitrile to 95% acetonitrile. Called log P (neutral) in the table. Calibration is carried out using unbranched alkan-2-ones (having 3 to 16 carbon atoms) with known log P values (log P values determined on the basis of the retention times by linear interpolation between two successive alkanones).

[3] = test system: Meloidogyne incognita; test: Meloidogyne incognita test; type: in vivo; details: 20 ppm; lettuce; after 14 days
Description: To produce a suitable preparation of active ingredient, 1 part by weight of active ingredient is mixed with the stated amount of solvent and the concentrate is diluted with water to the desired concentration. Vessels are filled with sand, active ingredient solution, an egg/larvae suspension of the southern root-knot nematode (Meloidogyne incognita) and lettuce seeds. The lettuce seeds germinate and the plants develop. The galls develop on the roots. After 14 days, the nematicidal efficacy in % is determined by the formation of galls. 100% means that no galls were found; 0% means that the number of galls on the treated plants corresponds to the untreated control.

[4] = test system: Myzus persicae; test: Myzus persicae spray test; type: in vivo; details: foliar, Chinese cabbage leaf discs, after 5-6 days, read-out: efficacy
Description: (§1) To produce a suitable active ingredient preparation, 1 part by weight of active ingredient is dissolved with the stated parts by weight of solvent and made up with water containing an emulsifier concentration of 1000 ppm until the desired concentration is attained. To produce further test concentrations, the preparation is diluted with emulsifier-containing water. Discs of Chinese cabbage leaves (Brassica pekinensis) infested by all stages of the green peach aphid (Myzus persicae) are sprayed with an active ingredient preparation of the desired concentration. After 5-6 days, the efficacy in % is determined. 100% means that all the aphids have been killed; 0% means that no aphids have been killed.

[5] = test system: Phaedon cochleariae; test: Phaedon cochleariae spray test; type: in vivo; details: foliar, 168 h, larvae on Chinese cabbage leaf discs, after 7 days, read-out: efficacy
Description: as §1, with “pekinensis)” for “pekinensis) infested by all stages of the green peach aphid (Myzus persicae)”, “concentration and, after drying, populated with larvae of the mustard beetle (Phaedon cochleariae).” for “concentration.”, “7” for “5-6”, “beetle larvae” for “aphids”

[6] = test system: Spodoptera frugiperda; test: Spodoptera frugiperda spray test; type: in vivo; details: foliar, 168 h, caterpillars on maize leaf discs, after 7 days, read-out: efficacy
Description: To produce a suitable active ingredient preparation, 1 part by weight of active ingredient is dissolved with the stated parts by weight of solvent and made up with water containing an emulsifier concentration of 1000 ppm until the desired concentration is attained. To produce further test concentrations, the preparation is diluted with emulsifier-containing water. Leaf discs of maize (Zea mays) are sprayed with an active ingredient preparation of the desired concentration and, after drying, populated with caterpillars of the armyworm (Spodoptera frugiperda). After 7 days, the efficacy in % is determined. 100% means that all the caterpillars have been killed; 0% means that no caterpillar has been killed.

Structure (SMILES): CCSc1cc2ccccc2nc1-c1nc2cc(C(F)(F)F)ccc2o1 [Example I-32]
nematicidal efficacy (formation of galls) [3]: 100%

Structure (SMILES): CC[S+]([O-])c1cc2ccccc2nc1-c1nc2cc3c(cc2[nH]1)OC(F)(F)O3 (centres unmarked) [Example I-36]
pest or weed control at 100 g/ha [1]: 90%

Structure (SMILES): CCSc1nc2ccccc2nc1-c1nc2cc(C(F)(F)F)ncc2n1C [Example I-4, 2-Ethylsulphanyl-3-[3-methyl-6-(trifluoromethyl)imidazo[4,5-c]pyridin-2-yl]quinoxaline]
pest or weed control at 100 g/ha [1]: 70%
chromatographic logP [2]: 4.1

Structure (SMILES): CCS(=O)(=O)c1cc2ccccc2nc1-c1nc2cc(C(F)(F)F)nnc2n1C [Example I-22]
pest or weed control at 100 g/ha [1]: 90%
pest or weed control at 100 g/ha [4]: 100%
pest or weed control at 100 g/ha [6]: 100%

Structure (SMILES): CCS(=O)(=O)c1cc2ccc(Cl)cc2nc1-c1nc2cc(C(F)(F)F)ncc2n1C [Example I-8, 7-Chloro-3-ethylsulphonyl-2-[3-methyl-6-(trifluoromethyl)imidazo[4,5-c]pyridin-2-yl]quinoline]
pest or weed control at 500 g/ha [4]: 90%
chromatographic logP [2]: 2.63
pest or weed control at 500 g/ha [5]: 100%
pest or weed control at 500 g/ha [6]: 100%

Structure (SMILES): CCSc1cc2ccccc2nc1-c1nc2cc(C(F)(F)C(F)(F)F)cnc2n1C [Example I-37]
pest or weed control at 100 g/ha [1]: 90%

Structure (SMILES): CCSc1c(-c2nc3cc(C(F)(F)F)ncc3n2C)ncc2ccccc12 [I′-42]
pest or weed control at 500 g/ha ([1]; 500 g/ha): 70%
pest or weed control at 500 g/ha [4]: 90%

Structure (SMILES): CCS(=O)(=O)c1cc2ccccc2nc1-c1cn2cnc(C(F)(F)F)cc2n1 [Example I-11, 3-(Ethylsulphonyl)-2-[7-(trifluoromethyl)imidazo[1,2-c]pyrimidin-2-yl]quinoline]
pest or weed control at 500 g/ha [4]: 70%
chromatographic logP [2]: 2.63
pest or weed control at 500 g/ha [5]: 100%
pest or weed control at 500 g/ha [6]: 100%

Continued, in another order:

chromatographic logP [2]: 4.63
Structure (SMILES): CCSc1cc2ccccc2nc1-c1nc2cc(SC(F)(F)F)ccc2n1C [Example I-34, 3-Ethylsulphanyl-2-[1-methyl-5-(trifluoromethylsulphanyl)benzimidazol-2-yl]quinoline]
pest or weed control at 100 g/ha [1]: 100%

chromatographic logP [2]: 3.39
Structure (SMILES): CCS(=O)(=O)c1cc2ccccc2nc1-c1nc2cc3c(cc2n1C)OC(F)(F)O3 [Example I-16, 6-(3-Ethylsulphonyl-2-quinolyl)-2,2-difluoro-7-methyl-[1,3]dioxolo[4,5-f]benzimidazole]
pest or weed control at 500 g/ha [4]: 90%
pest or weed control at 500 g/ha [5]: 100%
pest or weed control at 500 g/ha [6]: 100%

chromatographic logP [2]: 3.27
Structure (SMILES): CCS(=O)(=O)c1cc2ccccc2nc1-c1nc2cc(C(F)(F)F)cnc2o1 [Example I-13]
pest or weed control at 500 g/ha [4]: 100%
pest or weed control at 100 g/ha [5]: 100%
pest or weed control at 500 g/ha [6]: 83%

chromatographic logP [2]: 3.05
Structure (SMILES): CCS(=O)(=O)c1cc2ccccc2nc1-c1nc2cc([S+]([O-])C(F)(F)F)ccc2o1 (centres unmarked) [Example I-19, 2-(3-Ethylsulphonyl-2-quinolyl)-5-(trifluoromethylsulphinyl)-1,3-benzoxazole]
pest or weed control at 100 g/ha [4]: 90%
pest or weed control at 100 g/ha [5]: 100%
pest or weed control at 100 g/ha [6]: 100%

chromatographic logP [2]: 3.96
Structure (SMILES): CCS(=O)(=O)c1cc2ccccc2nc1-c1nc2cc(SC(F)(F)F)ccc2n1C [Example I-21, 3-Ethylsulphonyl-2-[1-methyl-5-(trifluoromethylsulphanyl)benzimidazol-2-yl]quinoline]
pest or weed control at 20 g/ha [1]: 70%
pest or weed control at 100 g/ha [4]: 100%
pest or weed control at 100 g/ha [5]: 100%
pest or weed control at 100 g/ha [6]: 100%

chromatographic logP [2]: 3.62
Structure (SMILES): CCS(=O)(=O)c1cc2ccccc2nc1-c1nc2cc(S(=O)(=O)C(F)(F)F)ccc2o1 [Example I-18, 2-(3-Ethylsulphonyl-2-quinolyl)-5-(trifluoromethylsulphonyl)-1,3-benzoxazole]
pest or weed control at 100 g/ha [1]: 70%
pest or weed control at 100 g/ha [4]: 100%
pest or weed control at 100 g/ha [5]: 100%
pest or weed control at 100 g/ha [6]: 100%

chromatographic logP [2]: 3.23
Structure (SMILES): CCSc1cnc2nc(-c3nc4cc(C(F)(F)F)ncc4n3C)c(SCC)cc2c1 [Example I-40, 3,6-Bis(ethylsulphanyl)-2-[3-methyl-6-(trifluoromethyl)-3H-imidazo[4,5-c]pyridin-2-yl]-1,8-naphthyridine]
pest or weed control at 20 g/ha [1]: 70%
nematicidal efficacy (formation of galls) [3]: 90%

chromatographic logP [2]: 4.17
Structure (SMILES): CCS(=O)(=O)c1cc2ccccc2nc1-c1nc2cc(SC(F)(F)F)ccc2o1 [Example I-14, 2-(3-Ethylsulphonyl-2-quinolyl)-5-(trifluoromethylsulphanyl)-1,3-benzoxazole]
pest or weed control at 500 g/ha [4]: 90%
pest or weed control at 500 g/ha [5]: 100%
pest or weed control at 500 g/ha [6]: 100%

chromatographic logP [2]: 2.79
Structure (SMILES): CCS(=O)(=O)c1cc2ccccc2nc1-c1nc2cc([S+]([O-])C(F)(F)F)ccc2n1C (centres unmarked) [Example I-23, 3-Ethylsulphonyl-2-[1-methyl-5-(trifluoromethylsulphinyl)benzimidazol-2-yl]quinoline]
pest or weed control at 20 g/ha [1]: 100%
pest or weed control at 100 g/ha [4]: 100%
pest or weed control at 100 g/ha [5]: 100%
pest or weed control at 100 g/ha [6]: 100%

chromatographic logP [2]: 5.43
Structure (SMILES): CCSc1cc2ccccc2nc1-c1nc2cc(SC(F)(F)F)ccc2o1 [Example I-29, 2-(3-Ethylsulphanyl-2-quinolyl)-5-(trifluoromethylsulphanyl)-1,3-benzoxazole]
pest or weed control at 100 g/ha [1]: 70%
